Test results: PMC5715595 (British Journal of Pharmacology, 2017)
Read-outs that look alike come from different tables or passages of the source.

Experiments:
[1] = system: hERG channel trafficking
Description: Whole‐cell patch clamp conditions were similar to the previous one with the following slight changes (biphasic pulses 2 s at +20 mV and then for 3.2 s at −50 mV applied at a 0.1 Hz).

[2] = molecular target: T1, KV4.3 (Homo sapiens, UniProt Q9UK17); experiment: Whole-cell patch clamp on KV4.3 (Ito); assay type: cell-based
T1 construct: expressed in transfected cells
T1 sequence (Q9UK17 1-655): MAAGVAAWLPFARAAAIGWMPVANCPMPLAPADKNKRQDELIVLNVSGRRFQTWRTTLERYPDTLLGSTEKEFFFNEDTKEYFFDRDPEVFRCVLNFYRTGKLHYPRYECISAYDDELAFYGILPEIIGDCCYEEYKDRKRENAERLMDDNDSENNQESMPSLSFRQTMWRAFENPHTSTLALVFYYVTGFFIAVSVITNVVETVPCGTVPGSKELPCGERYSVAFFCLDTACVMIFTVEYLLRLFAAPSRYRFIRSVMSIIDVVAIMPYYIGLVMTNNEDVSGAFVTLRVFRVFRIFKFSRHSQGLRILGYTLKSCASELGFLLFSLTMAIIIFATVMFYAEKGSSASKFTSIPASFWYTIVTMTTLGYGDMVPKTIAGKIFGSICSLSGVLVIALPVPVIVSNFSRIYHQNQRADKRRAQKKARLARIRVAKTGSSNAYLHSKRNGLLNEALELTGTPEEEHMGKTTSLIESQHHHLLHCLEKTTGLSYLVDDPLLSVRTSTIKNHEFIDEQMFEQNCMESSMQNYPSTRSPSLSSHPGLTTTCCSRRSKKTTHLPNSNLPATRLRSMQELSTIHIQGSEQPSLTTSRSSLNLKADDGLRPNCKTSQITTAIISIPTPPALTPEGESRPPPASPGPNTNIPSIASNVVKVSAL
Description: (§1) and CiPA Initiative Studies
(§2) =============================================================
(§3) In vitro studies on other ion channels […]
(§4) through NaV1.5, KV4.3, KV7.1/mink, Kir2.1, KV1.5, CaV1.2 and CaV3.2 channels.
(§5) 35-mm dish culture in the conditions mentioned in standard cell culture conditions. Experiments were performed with a cell density enabling isolated cells for patch clamping. Cells were continuously superfused with extracellular medium (1-2 mL∙minute-1) at room temperature.
(§6) D-glucose 10, HEPES 10 and the final pH adjusted to 7.4±0.02 with NaOH for recording NaV1.5, KV4.3, KV7.1/mink, Kir2.1, KV1.5 and CaV3.2 currents. It was (in mM): NaCl 110, KCl 4, BaCl2 20, MgCl2 1, D-glucose 20, HEPES 10 and the final pH adjusted to 7.4 ± 0.02 with NaOH for recording the CaV1.2 current. Compositions of the intracellular solution to fill the pipette are […]
(§7) Composition of intracellular solutions used to fill pipette to record currents through NaV1.5, KV4.3, KV7.1/mink, Kir2.1, KV1.5, CaV1.2 and CaV3.2 channels
(§8) Solution to fill the pipette (mM)
(§9) Creatine-phospho kinase 50 U∙mL-1
(§10) After formation of a Gigaohm seal between the patch electrodes and individual cells (pipette resistance range: 2.0 MΩ - 7.0 MΩ; seal resistance range: > 1 GΩ) the cell membrane across the pipette tip was ruptured to assure electrical access to the cell interior (whole-cell patch-configuration). In case the quality of the seal was poor, the process of seal formation was repeated with a different cell and a new pipette. As soon as a stable seal was established outward tail currents were measured upon pulses described in the Table S2. If current density was judged to be too low for measurement, another cell was recorded. […]
(§11) voltage stimulation protocol indicated in the next table continuously run until the steady-state level of block was reached.
(§12) Stimulation conditions used to record currents through NaV1.5, KV4.3, KV7.1/mink, Kir2.1, KV1.5, CaV1.2 and CaV3.2 channels
(§13) Ion channel Holding potential Pulse / duration Frequency Reference compound […]
(§14) (resting / fast / slow sweeps at one (10 mM) inactivated concentration)

[3] = molecular target: T2, Kir2.1 (Homo sapiens, UniProt P63252); experiment: Whole-cell patch clamp on Kir2.1 (IK1); assay type: cell-based
T2 construct: expressed in transfected cells
T2 sequence (P63252 1-427): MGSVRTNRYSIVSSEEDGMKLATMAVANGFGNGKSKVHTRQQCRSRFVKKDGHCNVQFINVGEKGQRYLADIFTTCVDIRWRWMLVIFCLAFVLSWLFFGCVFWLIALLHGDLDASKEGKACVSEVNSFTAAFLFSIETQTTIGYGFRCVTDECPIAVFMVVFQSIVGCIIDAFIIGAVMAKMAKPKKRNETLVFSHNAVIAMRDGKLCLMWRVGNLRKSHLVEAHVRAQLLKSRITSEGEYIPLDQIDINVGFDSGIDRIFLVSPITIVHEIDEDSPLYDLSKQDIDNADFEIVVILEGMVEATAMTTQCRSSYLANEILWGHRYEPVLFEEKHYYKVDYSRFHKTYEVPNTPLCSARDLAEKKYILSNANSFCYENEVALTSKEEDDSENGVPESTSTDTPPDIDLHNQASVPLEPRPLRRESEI
Description: as §1, §2, §3, §4, §5, §6, §7, §8, §9, §10, §11, §12, §13, §14

[4] = in vivo; conditions: both sexes, Beagle, dog, in vivo; for concentration at 1 h: po, 1 h after administration, read-out: total drug exposure (serum level)
Description: (§15) Telemetry implantation was performed as previously described (Lacroix et al., 2003). Approximately 2 weeks later, blood pressure, heart rate and ECG intervals were recorded per blocks of 30 s at the time points of interest for 30 min before and for 24 h after administration of test compound. ECG traces were inspected visually for any rhythm or conduction abnormalities (such as arrhythmia, tachyarrhythmia, atrioventricular conduction blocks), and values of PR, QRS and QT intervals were obtained by a validated manual reading procedure (mean calculated from three non‐consecutive sinus beats). The QT interval measured was corrected for heart rate using the Fridericia formula (QTcF) and the van de Waters formula. […] Five to six dogs (two or three males and three females) were studied with at least 48 h between each test session.
(§16) At the highest dose of 15 mg·kg^−1 p.o., this route provided an exposure (59 ± 25 ng·mL^−1), without any adverse CNS events (i.e. pre‐convulsive signs) in this species, close to the exposure recorded in humans at therapeutic doses. […] Pitolisant serum levels were assessed by LC‐mass spectrometry using a validated analytical method.

[5] = system: conscious telemetered dogs; experiment: in vivo; conditions: dog
Description: as §15, §16

[6] = in house data

With `Cl.Clc1ccc(CCCOCCCN2CCCCC2)cc1` [pitolisant, 1‐{3‐[3‐(4‐chlorophenyl)propoxy]propyl}piperidine, hydrochloride] the “effect on hERG current after long-term exposure” value ([1]; 1 μM over 24 h, after washout) was “no significant effect on hERG current”, the “change in concentration in the cell culture medium over 24 h of exposure” value ([1]; LC-mass spectrometry) was “no significant changes” and the IC50 ([2]; KV4.3 Ito, Hill curve fit with Hill coefficient of one, read-out: Fitted IC50) was 11.4 µM. The IC50 ([2]; Pitolisant IC50, KV4.3, Ito) was about 10 µM, the IC50 ([3]; Kir2.1 IK1, Hill curve fit with Hill coefficient of one, read-out: Fitted IC50) was 16.5 µM and the IC50 ([3]; Pitolisant IC50, Kir2.1, IK1) was at least 10 µM. For the same compound, the concentration at 5 min ([4]; iv, 1.5 mg·kg^−1 i.v., 5 min, read-out: total drug concentration) was 294 ± 40 ng/mL, the concentration at 30 min ([4]; iv, 1.5 mg·kg^−1 i.v., 30 min, read-out: total drug concentration) was 231 ± 36 ng/mL and the concentration at 1 h ([4]; 5 mg·kg^−1 p.o.) was 3.5 ± 1 ng/mL. The concentration at 1 h ([4]; 10 mg·kg^−1 p.o.) was 15.8 ± 5.8 ng/mL, the concentration at 1 h ([4]; 15 mg·kg^−1 p.o.) was 59 ± 25 ng/mL and the free drug concentration ([5]; both, Beagle, in vivo, iv) was ~ 0.14 μM. The “effect on mean arterial blood pressure and heart rate” value ([5]; 4.5 mg·kg^−1 i.v., for up to 4 h after injection) was “increases in mean arterial blood pressure and heart rate”, the “effect on QTcF interval” value ([5]; 4.5 mg·kg^−1 i.v., return to baseline 30 min after injection) was “decrease in QTcF interval for 20 min” and the “total drug exposure (serum level)” value ([5]; 15 mg·kg^−1 p.o., 1 h after administration) was 59.2 ± 24.6 ng/mL. The “arrhythmia or other morphological changes in the ECG” value ([5]; over the test period, 6/6 dogs) was “No arrhythmia or other morphological changes in the ECG”, the “effect on heart rate, mean arterial blood pressure, QTc interval or any other ECG parameter” value ([5]; single doses 5, 10 and 15 mg·kg^−1 p.o. or 1.5 mg·kg^−1 i.v., compared to vehicle) was “no effect” and the protein-binding [6] was 96%.
